Paper doi:10.1101/2024.04.10.588849v1 (biorxiv, 2024)

Target: T1, recombinant human MPST (3-mercaptopyruvate sulfurtransferase) (Homo sapiens, UniProt P25325)
T1 sequence (P25325 1-317 isoform P25325-2): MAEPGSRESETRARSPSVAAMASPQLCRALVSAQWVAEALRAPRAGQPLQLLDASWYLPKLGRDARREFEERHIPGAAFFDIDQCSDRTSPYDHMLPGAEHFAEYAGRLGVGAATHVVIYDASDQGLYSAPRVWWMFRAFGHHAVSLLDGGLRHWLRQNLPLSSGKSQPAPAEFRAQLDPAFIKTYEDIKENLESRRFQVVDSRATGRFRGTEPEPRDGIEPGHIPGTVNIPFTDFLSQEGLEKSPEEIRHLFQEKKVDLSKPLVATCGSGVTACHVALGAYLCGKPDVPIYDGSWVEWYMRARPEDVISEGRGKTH
Experiment: isothermal titration calorimetry
Assay type: binding

Kd: 3.2 µM
SMILES: C[N+](C)(C)[C@@H](Cc1c[nH]c(=S)[nH]1)C(=O)[O-] [ergothioneine]
